Source: patent US6465489B1, “Ureidopiperidine derivatives as selective human NK3 receptor antagonists” (Sanofi-Synthelabo, priority 1998, dated 2002)

Tested on: bronchitic and cough response induced by citric acid
Experiment: Bronchitic and cough response induced by citric acid in guinea pigs
Assay type: in vivo, guinea pig
Conditions: compared with osanetant
Description: In guinea pigs, the effect on the bronchitic and cough response induced by citric acid has been studied using the model described by S. Daoui et al., in Am. J. Resp. Crit. Care Med., 1998, 158, 42-48. In this test, the Example 10 compound has shown an activity 10 times greater than that of osanetant.

Compound: CN(C)C(=O)NC1(c2ccccc2)CCN(CCCC2(c3ccc(Cl)c(Cl)c3)CCCN(C(=O)c3ccccc3)C2)CC1 (stereo not shown) [Example 10]
- activity relative to osanetant: 10 times
